Results reported in patent US20040204409A1, “Bicyclic compounds as NR2B receptor antagonists” (priority 2003, published 2004).

Biological target: T1, NR2B receptor (Rattus norvegicus, UniProt P35439+Q00960)
T1 construct: Membranes were prepared by homogenization of forebrain of male CD rats; from tissue; host or cells: rat forebrain P2 membrane
Assay: NR2B Binding Assay (competition with [3H]-1-[(1S*,2S*)-2-hydroxy-2-(4-hydroxyphenyl)-1-methylethyl]-4-phenylpiperidin-4-ol on P2 membrane)
Conditions: forebrain P2 membrane of male CD rats, 5 nM radioligand, 60 minutes at room temperature, pH7.4; read-out: Ki value with respect to binding affinity for the NR2B receptor
Method: The activity of the bicyclic amide compounds of the present invention, as NR2B antagonists, is determined by their ability to inhibit the binding of NR2B subunit at its receptor sites employing radioactive ligands.
The NR2B antagonist activity of the bicyclic amide compounds is evaluated by using the standard assay procedure described in, for example, J. Pharmacol., 331, pp117-126, 1997. This method essentially involves determining the concentration of the individual compound required to reduce the amount of radiolabelled NR2B ligands by 50% at their receptor sites, thereby affording characteristic IC50 values for each compound tested. More specifically, the assay is carried out as follows. […]
For the saturation assay, receptor saturation was determined by incubating [^3H]-1-[(1S*,2S*)-2-hydroxy-2-(4-hydroxyphenyl)-1-methylethyl]-4-phenylpiperidin-4-ol and 50 μg protein of P2 membrane for 60 minutes at room temperature in a final 100 μl of incubation buffer (50 mM Tris HCl, pH7.4). Total and non-specific bindings (in the presence of 10 μM of unlabeled 1-[(1S*,2S*)-2-hydroxy-2-(4-hydroxyphenyl)-1-methylethyl]-4-phenylpiperidin-4-ol) were determined in a range of [3H]-1-[(1S*,2S*)-2-hydroxy-2-(4-hydroxyphenyl)-1-methylethyl]-4-phenylpiperidin-4-ol concentrations (0.625 nM to 60 nM). […]

T1 sequence (Q00960 27-1482, other chains not shown): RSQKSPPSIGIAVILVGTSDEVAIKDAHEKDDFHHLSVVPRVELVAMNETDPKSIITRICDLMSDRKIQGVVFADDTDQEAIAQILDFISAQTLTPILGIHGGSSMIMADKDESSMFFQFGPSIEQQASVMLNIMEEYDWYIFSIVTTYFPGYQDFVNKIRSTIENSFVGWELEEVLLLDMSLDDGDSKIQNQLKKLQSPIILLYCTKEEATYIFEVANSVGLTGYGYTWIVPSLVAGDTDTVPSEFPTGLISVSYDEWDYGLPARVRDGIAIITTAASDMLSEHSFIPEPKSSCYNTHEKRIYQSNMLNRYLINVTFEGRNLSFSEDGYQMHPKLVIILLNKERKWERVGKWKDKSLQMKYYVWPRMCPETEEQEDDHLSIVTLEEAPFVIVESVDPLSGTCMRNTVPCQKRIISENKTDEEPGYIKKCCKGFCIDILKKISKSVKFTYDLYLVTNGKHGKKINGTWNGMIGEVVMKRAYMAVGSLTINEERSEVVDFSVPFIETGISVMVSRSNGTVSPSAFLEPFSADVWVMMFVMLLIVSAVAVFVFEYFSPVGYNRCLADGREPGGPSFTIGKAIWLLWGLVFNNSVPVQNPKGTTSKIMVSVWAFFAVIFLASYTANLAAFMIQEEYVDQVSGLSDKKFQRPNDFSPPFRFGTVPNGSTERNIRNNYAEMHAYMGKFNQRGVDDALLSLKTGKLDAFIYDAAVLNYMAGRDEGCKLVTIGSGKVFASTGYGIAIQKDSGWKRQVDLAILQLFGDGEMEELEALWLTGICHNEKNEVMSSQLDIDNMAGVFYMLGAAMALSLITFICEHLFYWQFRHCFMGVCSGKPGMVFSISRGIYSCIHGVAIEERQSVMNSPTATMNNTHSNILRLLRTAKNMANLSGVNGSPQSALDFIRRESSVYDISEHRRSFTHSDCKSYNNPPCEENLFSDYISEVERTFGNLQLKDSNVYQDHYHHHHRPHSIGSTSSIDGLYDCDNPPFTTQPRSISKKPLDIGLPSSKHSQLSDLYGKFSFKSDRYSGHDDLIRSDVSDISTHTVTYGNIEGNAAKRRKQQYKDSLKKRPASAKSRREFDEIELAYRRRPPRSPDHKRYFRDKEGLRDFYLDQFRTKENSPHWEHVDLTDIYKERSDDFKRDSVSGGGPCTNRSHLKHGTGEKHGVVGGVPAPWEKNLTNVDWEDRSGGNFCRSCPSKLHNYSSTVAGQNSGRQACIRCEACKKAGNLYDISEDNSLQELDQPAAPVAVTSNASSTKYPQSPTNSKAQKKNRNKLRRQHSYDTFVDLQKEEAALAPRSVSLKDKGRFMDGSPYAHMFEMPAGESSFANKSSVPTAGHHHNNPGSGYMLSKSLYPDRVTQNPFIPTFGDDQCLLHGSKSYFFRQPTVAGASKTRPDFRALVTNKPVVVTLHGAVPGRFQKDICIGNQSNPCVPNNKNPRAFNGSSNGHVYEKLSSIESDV

Ki: 2 nM
Compound: O=C(NCc1ccc2[nH]c(Cc3ccccc3)cc2c1)c1ccc(O)cc1 [Example 8, N-[(2-benzyl-1H-indol-5-yl)methyl]-4-hydroxybenzamide]
